Test system: adolescent and adult subjects with AD
Assay: Phase II clinical study in AD: efficacy and subject-reported outcomes
Assay type: in vivo, human
Conditions: for itch reduction in weekly average NRS (median): Week 4; for probability of achieving EASI75 / probability of achieving IGA treatment success: model; for patients with 75% improvement in EASI score: post-hoc analysis
Source text: This was a multicenter (United States, Canada, and Japan), randomized, double-blind (Sponsor-unblind), vehicle-controlled, 6-arm, parallel-group, dose-finding study in adolescent and adult subjects with AD.
The study consisted of 3 periods: up to 4 weeks screening, 12 weeks double-blind treatment, and 4 weeks post-treatment Follow-up. Study visits occurred at Screening; Baseline; Weeks 1, 2, 4, 8, and 12 during the treatment period; and 2 and 4 weeks after the last application of study treatment (i.e., at Weeks 14 and 16). Additional visits could occur, as needed, to follow-up on any skin reactions or ongoing AEs. A subject's total duration of study participation was approximately 16 to 20 weeks.
Two concentrations of Tapinarof cream (0.5% and 1%) and a vehicle control were evaluated following application to all AD lesions (except on the scalp) once or twice daily for 12 weeks. There were no planned dose adjustments during the study. It was expected that approximately 270 adolescent and adult subjects with AD would be screened to achieve 228 randomized subjects (1:1:1:1:1:1; N=3 8 for each of the 6 treatment groups) and approximately 204 evaluable subjects overall. At least 30 subjects were to be randomized in Japan to achieve at least 24 evaluable Japanese subjects. To ensure an adequate number of adolescents (aged 12 to 17 years) versus adults were represented in the overall study population, enrollment was limited to approximately 65% of either age group.
Efficacy was assessed by using a 5-point static Investigator Global Assessment (IGA) (0-4 scale), the Eczema Area and Severity Index (EASI), percent of body surface area (% BSA) involvement, severity of AD signs using a Total Severity Score (TSS), and by subject-reported itch/pruritus severity using a numeric rating scale (NRS) (from the Daily Sign and Symptom Severity Diary). Additional subject-reported outcomes included the expanded Patient-Oriented Eczema Measure (POEM), a Daily Sign and Symptom Severity Diary, and subject impression of severity of eczema symptoms and overall change in severity of eczema symptoms and overall change in itch/pruritus items. There was also an investigator global impression of change item.
Investigator's Global Assessment: The IGA is a clinical tool for assessing the current state/severity of a subject's AD. It is a static 5-point morphological assessment of overall disease severity, as determined by the investigator, using the clinical characteristics of erythema, infiltration, papulation, oozing, and crusting as guidelines. At each specified time point, the IGA was made without reference to previous scores. Scoring system ranges from 0 (=Clear) to 4 (=Severe).
Eczema Area and Severity Index: The EASI scoring system is a standard clinical tool for assessing the severity of AD that takes into account the overall severity of erythema, infiltration/papulation, excoriation, and lichenification, as well as the extent of BSA affected with AD. The 4 clinical signs are each graded on a 4-point scale (0 to 3) for each of the 4 specified body regions (head and neck, upper extremities, lower extremities, and trunk). The EASI is a static assessment made without reference to previous scores.
Body Surface Area: The extent of BSA affected by AD is a general indicator of disease severity and was measured throughout the study. The extent of BSA to which study treatment was applied was also recorded. For the purpose of approximate clinical estimation, the total palmar surface of the palm plus 5 digits was assumed to be approximately equivalent to 1% BSA.
Total Severity Score: A single target lesion that measured at least 3 cm at Screening and Baseline and was representative of subject disease, but not located on hands, feet or genitalia, was selected at Baseline to assess efficacy in treating a discrete area rather than an overall average of all areas. […]

[1] = 0.5% BID, Week 8, interim analysis
[2] = 0.5% QD, Week 8, interim analysis
[3] = 1% BID, Week 8, interim analysis
[4] = 1% QD, Week 8, interim analysis

Q: How did the “EASI75 responders who maintained response from Week 12 to Week 16” value (0.5% BID) turn out when `CC(C)c1c(O)cc(/C=C/c2ccccc2)cc1O` [Tapinarof, 3,5-Dihydroxy-4-isopropyl-trans-stilbene] was run?
A: 82%

Q: What about the “difference in probability of achieving EASI75 vs vehicle” value (0.5% BID) of the same compound?
A: 42.6%

Q: And the “itch reduction in weekly average NRS (median)” value (from here on “itch reduction”) (0.5% BID, interim analysis)?
A: −53.00%

Q: And the “IGA response rate (IGA 0 or 1 and ≥2-grade improvement)” value (“IGA response rate” for short) [1]?
A: 35%

Q: What about the “subjects with 75% reduction in EASI from Baseline” value (shortened to “subjects with 75% reduction”) [1] of the same compound?
A: 59%

Q: What about the “difference in probability of IGA response vs vehicle” value (0.5% BID, Week 12) of the same compound?
A: 22.4%

Q: What about the “expanded POEM item 8 (nights woken because of eczema), mean change” value (0.5% BID, Week 12) of the same compound?
A: −1.3

Q: What about the “patients with minimum three-point improvement in itch NRS” value (from here on “patients … in itch NRS”) (0.5% BID, Week 12) of the same compound?
A: 33%

Q: What about the “subjects reporting severity of AD symptoms as very improved” value (“subjects reporting severity” for short) (0.5% BID, Week 12) of the same compound?
A: 47%

Q: And the “IGA response rate” value (0.5% BID, Week 12, NRI)?
A: 37%

Q: And the “probability of achieving EASI75” value (0.5% BID, Week 12)?
A: 54.2%

Q: And the “probability of achieving IGA treatment success” value (0.5% BID, Week 12)?
A: 28.7%

Q: What about the “difference in probability of achieving EASI75 vs vehicle” value (0.5% QD) of the same compound?
A: 28.9%

Q: And the “itch reduction” value (0.5% QD, interim analysis)?
A: −53.57%

Q: And the “IGA response rate” value [2]?
A: 40%

Q: What about the “subjects with 75% reduction” value [2] of the same compound?
A: 35%

Q: And the “difference in probability of IGA response vs vehicle” value (0.5% QD, Week 12)?
A: 15.7%

Q: What about the “expanded POEM item 8 (nights woken because of eczema), mean change” value (0.5% QD, Week 12) of the same compound?
A: −1.2

Q: What about the “patients … in itch NRS” value (0.5% QD, Week 12) of the same compound?
A: 29%

Q: And the “subjects reporting severity” value (0.5% QD, Week 12)?
A: 40%

Q: What about the “IGA response rate” value (0.5% QD, Week 12, NRI) of the same compound?
A: 34%

Q: What about the “probability of achieving EASI75” value (0.5% QD, Week 12) of the same compound?
A: 32.6%

Q: What about the “probability of achieving IGA treatment success” value (0.5% QD, Week 12) of the same compound?
A: 18.3%

Q: And the “proportion of subjects with IGA treatment success” value (0.5% QD, Week 12, primary analysis)?
A: 40%

Q: What about the “subjects rating pruritus symptoms very improved or moderately improved” value (0.5% groups, Week 12) of the same compound?
A: 80-81%

Q: What about the “EASI75 responders who maintained response from Week 12 to Week 16” value (1% BID) of the same compound?
A: 63%

Q: And the “difference in probability of achieving EASI75 vs vehicle” value (1% BID)?
A: 74.5%

Q: What about the “itch reduction” value (1% BID, interim analysis) of the same compound?
A: −56.35%

Q: And the “IGA response rate” value [3]?
A: 35%

Q: What about the “subjects with 75% reduction” value [3] of the same compound?
A: 45%

Q: What about the “absolute change in percent BSA affected from baseline (mean)” value (1% BID, Week 12) of the same compound?
A: 11.2

Q: And the “difference in probability of IGA response vs vehicle” value (1% BID, Week 12)?
A: 61.5%

Q: What about the “patients rating itch moderately improved to very improved” value (1% BID, Week 12) of the same compound?
A: 78%

Q: What about the “patients … in itch NRS” value (1% BID, Week 12) of the same compound?
A: 30%

Q: And the “reduction in total severity score (mean change)” value (1% BID, Week 12)?
A: 5.8

Q: And the “subjects reporting severity” value (1% BID, Week 12)?
A: 64%

Q: And the “IGA response rate” value (1% BID, Week 12, NRI)?
A: 53%

Q: What about the “probability of achieving EASI75” value (1% BID, Week 12) of the same compound?
A: 86.0%

Q: And the “probability of achieving IGA treatment success” value (1% BID, Week 12)?
A: 67.7%

Q: What about the “patients with 75% improvement in EASI score” value (1% BID, Week 12) of the same compound?
A: 60%

Q: And the “EASI75 responders who maintained response from Week 12 to Week 16” value (1% QD)?
A: 57%

Q: And the “difference in probability of achieving EASI75 vs vehicle” value (1% QD)?
A: 77.0%

Q: What about the “itch reduction” value (1% QD, interim analysis) of the same compound?
A: −57.14%

Q: What about the “IGA response rate” value [4] of the same compound?
A: 74%

Q: What about the “subjects with 75% reduction” value [4] of the same compound?
A: 63%

Q: And the “absolute change in percent BSA affected from baseline (mean)” value (1% QD, Week 12)?
A: 11.6

Q: What about the “difference in probability of IGA response vs vehicle” value (1% QD, Week 12) of the same compound?
A: 60.1%

Q: And the “patients rating itch moderately improved to very improved” value (1% QD, Week 12)?
A: 86%

Q: What about the “patients … in itch NRS” value (1% QD, Week 12) of the same compound?
A: 32%

Q: What about the “reduction in total severity score (mean change)” value (1% QD, Week 12) of the same compound?
A: 5.5

Q: What about the “subjects reporting severity” value (1% QD, Week 12) of the same compound?
A: 59%

Q: What about the “IGA response rate” value (1% QD, Week 12, NRI) of the same compound?
A: 46%

Q: What about the “probability of achieving EASI75” value (1% QD, Week 12) of the same compound?
A: 80.7%

Q: And the “probability of achieving IGA treatment success” value (1% QD, Week 12)?
A: 62.6%

Q: What about the patients with 75% improvement in EASI score (1% QD, Week 12) of the same compound?
A: 51%

Q: And the “subjects rating pruritus symptoms very improved or moderately improved” value (1% groups, Week 12)?
A: 78-87%

Q: What about the “subjects with minimum 3-point improvement in itch/pruritus” value (Japanese population, 1% QD, Week 4 to Week 12) of the same compound?
A: approximately 70%

Q: What about the “subjects rating severity of itch very improved or moderately improved” value (Tapinarof groups, Week 12) of the same compound?
A: ≥ 78%

Q: And the “subjects rating severity of eczema symptoms very improved or moderately improved” value (active treatment groups, Week 12)?
A: > 80%

Q: And the “subjects rated by investigators as very improved or moderately improved” value (adolescent population, active treatment groups)?
A: ≥ 90%

Source: US12569453B2, “Use of tapinarof for the treatment of atopic dermatitis” (Dermavant Sciences GmbH, priority 2018, dated 2026)
